Source: patent EP0587396A1, “Use of hypoxoside derivatives for the treatment of viral infections” (VIROSTAT (NA) NV, priority 1992, dated 1994)
Where two headings read alike, the source gives them in different places.

Legend:
Assay type in all cases: cell-based
[1] = system: human immunodeficiency virus type 1 (HIV-1); experiment: Inhibition of HIV-1 proliferation in PHA-activated human PBL's (p24 core protein by Sandwich ELISA, HIV RNA by labelled DNA probe hybridization); conditions: for inhibition at 50 µg/mL: read-out: % inhibition:HIV-RNA, 50 μg/mℓ; for inhibition at 100 µg/mL: read-out: % inhibition:HIV-RNA, 100 μg/mℓ
Experimental: Compounds I - XXVIII were subjected to in vitro testing for inhibition of human immunodeficiency virus type 1 (HIV-1) proliferation as follows:
Human peripheral blood lymphocytes (PBL's) obtained by density gradient centrifugation of blood from healthy volunteers at a blood bank were pooled and used for the propagation of HIV-1 in vitro.
The PBL's were polyclonally activated with phytohaemagglutinin (PHA) and subjected to quality controls whereby their viability was tested with Trypan blue exclusion and the expression of activation antigens, CD4⁺ and CD25⁺ was measured by immunofluorescence. Prior to adding the test substance, the activated PBL's were exposed to a standardized titre of HIV-1 virus and after incubation for 60 minutes the cells were washed twice and plated into microtitre plates at a concentration of 2X10⁶ cells/well. The medium contained interleukin-2 and in control wells the virus produced between 50 and 100 ng/mℓ of p24 core protein on day 4. The test substance was added to these cultures either in water or dimethyl sulphoxide (DMSO) depending on solubility characteristics. The final DMSO concentration, when used, was always 1% v/v.
HIV replication was measured as the production of p24 core protein and the production of HIV RNA on days 2, 3 and 4, or on days 3, 4, 5 and 6. Core protein p24 was measured using 'Sandwich ELISA' technology using inter alia a monoclonal antibody against p24 core protein. The HIV RNA was measured using a specific labelled DNA probe against HIV RNA and the process of hybridization.
Results were expressed as percent inhibition of HIV-1 p24 core protein production or RNA production on days 3, 4 or 6.
In each test, cells were also exposed to HIV-1 and 3'-azido-3'-deoxythymidine (also known as Zidovudine or AZT) at 100, 10, 1 and 0.1 ng/mℓ. This was a positive control and compounds tested were compared to the inhibitory effect of 10 ng/mℓ AZT.
In all of the following Tables, percentage inhibition refers to inhibition of p24 core protein production and HIV RNA production relative to infected controls. Percentage AZT inhibition refers to inhibition caused by 10 ng/mℓ AZT at the end of the experiment, i.e. after 4 or 6 days.

[2] = Toxicity: lymphocyte proliferation assay with MTT in the HIV-1 infected PBL cultures; conditions: human, pbls, Table 8 (3 days incubation), read-out: Proliferation as a percentage of control value
[3] = as above; conditions: human, pbls, Table 8 continued (6 days incubation), read-out: Proliferation as a percentage of control value
Experimental: Possible toxic effects of the test substances were measured by viability testing using Trypan blue or a proliferation assay using3-(4,5-dimethylthiazol-2-yl)-2,5-diphenyl-2H-tetrazolium bromide (MTT) on day 4 or day 6 after initiation of the experiment (Borenfreund et al: Toxicol. In Vitro, 1988, 2, 1-6).
The toxicity of the drug was expressed as a percentage inhibition of lymphocyte proliferation as measured with MTT and compared with controls receiving the virus but no drug.

[4] = system: respiratory syncytial virus (RSV); experiment: Inhibition of RSV syncytium formation in Hep-2 cells
Experimental: Compound XVIII was added to Hep-2 cells growing as slope cultures in plastics tubes to give final concentrations respectively of 50, 100 and 200 µg/mℓ. The cultures were then respectively inoculated with a high standard viral dose, one tenth (1/10) of said standard dose, and one hundredth (1/100) of said standard dose of respiratory syncytial virus (RSV). After four days of incubation at 33°C the cells were visually inspected using an inverted phase contrast microscope and scored for the extent of syncytium formation, i.e. single cells containing three or more nuclei, as follows: a = 0 - 25%, b = 25 - 50%, c = 50 - 75% and d = 75 - 100% of cells having three or more nuclei.

[5] = system: primary foetal human fibroblasts; experiment: Signs of toxicity in the fibroblast cultures of the CMV test; conditions: 200 µg/mℓ
Experimental: (§1) Compound XVII was added to primary foetal human fibroblasts in tissue culture, to yield final concentrations respectively of 50, 100 and 200 µg/mℓ. The cultures were then respectively inoculated with a high standard viral dose, with one tenth (1/10) of said standard dose and with one fiftieth (1/50) of said standard dose of cytomegalo-virus (CMV) and incubated for four days.

cytomegalo-virus (CMV) = experiment: Cytopathic effect of CMV in primary foetal human fibroblasts
Experimental: as §1
The cytopathic effect of CMV was determined by microscopic visual inspection of the cell cultures, in terms of the extent of gross swelling of the cells, where: a = 0 - 25%, b = 25 - 50%, c = 50 - 75% and d = 75 - 100% of the cells affected by gross swelling.

[6] = Human immunodeficiency virus 1, 72 h, 3 days incubation
[7] = Human immunodeficiency virus 1, 144 h, 6 days incubation

Question: For `O=S(=O)(O)Oc1ccc(C#CC/C=C/c2ccc(OS(=O)(=O)O)c(O)c2)cc1O` [Compound XVII], which “% inhibition:p24 core protein” value ([1]; 50 μg/mℓ, 3 days incubation) is on record?
Answer: 47%

Question: What about the “% inhibition:p24 core protein” value ([1]; 50 μg/mℓ, 6 days incubation) of the same compound?
Answer: 87%

Question: And the “% inhibition:p24 core protein” value ([1]; 100 μg/mℓ, 3 days incubation)?
Answer: 88%

Question: And the inhibition at 50 µg/mL [1, 6]?
Answer: 68%

Question: What about the inhibition at 100 µg/mL [1, 6] of the same compound?
Answer: 93%

Question: What about the inhibition at 50 µg/mL [1, 7] of the same compound?
Answer: 91%

Question: And the inhibition at 100 µg/mL [1, 7]?
Answer: 100%

Question: What about the viability ([2]; 50 μg/mℓ) of the same compound?
Answer: 84%

Question: And the viability ([2]; 100 μg/mℓ)?
Answer: 80%

Question: What about the viability ([3]; 50 μg/mℓ) of the same compound?
Answer: 96%

Question: What about the viability ([3]; 100 μg/mℓ) of the same compound?
Answer: 94%

Question: And the “Extent of Syncytium Formation” value ([4]; 50 µg/mℓ, viral dose 1/10, 4 days at 33°C (virus control c))?
Answer: c (c = 50 - 75%)

Question: And the “Extent of Syncytium Formation” value ([4]; 50 µg/mℓ, viral dose 1/100, 4 days at 33°C (virus control b))?
Answer: a (a = 0 - 25%)

Question: And the “Extent of Syncytium Formation” value ([4]; 50 µg/mℓ, viral dose Full, 4 days at 33°C (virus control d))?
Answer: d (d = 75 - 100% of cells having three or more nuclei)

Question: What about the “Extent of Syncytium Formation” value ([4]; 100 µg/mℓ, viral dose 1/10, 4 days at 33°C (virus control c)) of the same compound?
Answer: a (a = 0 - 25%)

Question: What about the “Extent of Syncytium Formation” value ([4]; 100 µg/mℓ, viral dose 1/100, 4 days at 33°C (virus control b)) of the same compound?
Answer: Nil

Question: And the “Extent of Syncytium Formation” value ([4]; 100 µg/mℓ, viral dose Full, 4 days at 33°C (virus control d))?
Answer: c (c = 50 - 75%)

Question: And the “Extent of Syncytium Formation” value ([4]; 200 µg/mℓ, viral dose 1/10, 4 days at 33°C (virus control c))?
Answer: Nil

Question: What about the “Extent of Syncytium Formation” value ([4]; 200 µg/mℓ, viral dose 1/100, 4 days at 33°C (virus control b)) of the same compound?
Answer: Nil

Question: And the “Extent of Syncytium Formation” value ([4]; 200 µg/mℓ, viral dose Full, 4 days at 33°C (virus control d))?
Answer: Nil

Question: What about the “cultures showing signs of toxicity due to the compound” value [5] of the same compound?
Answer: 5 out of 8

Question: And the “Extent of the Cytopathic Effect of Cytomegalo-Virus” value (shortened to “Extent … of Cytomegalo-Virus”) (cytomegalo-virus (CMV); 50 µg/mℓ, viral dose 1/10, 4 days of incubation (virus control b+))?
Answer: b (b = 25 - 50%)

Question: What about the “Extent … of Cytomegalo-Virus” value (cytomegalo-virus (CMV); 50 µg/mℓ, viral dose 1/50, 4 days of incubation (virus control a)) of the same compound?
Answer: a (a = 0 - 25%)

Question: What about the “Extent … of Cytomegalo-Virus” value (cytomegalo-virus (CMV); 50 µg/mℓ, viral dose Full, 4 days of incubation (virus control c)) of the same compound?
Answer: bc

Question: And the “Extent … of Cytomegalo-Virus” value (cytomegalo-virus (CMV); 100 µg/mℓ, viral dose 1/10, 4 days of incubation (virus control b+))?
Answer: ab

Question: What about the “Extent … of Cytomegalo-Virus” value (cytomegalo-virus (CMV); 100 µg/mℓ, viral dose 1/50, 4 days of incubation (virus control a)) of the same compound?
Answer: a-

Question: What about the “Extent … of Cytomegalo-Virus” value (cytomegalo-virus (CMV); 100 µg/mℓ, viral dose Full, 4 days of incubation (virus control c)) of the same compound?
Answer: bc

Question: What about the “Extent … of Cytomegalo-Virus” value (cytomegalo-virus (CMV); 200 µg/mℓ, viral dose 1/10, 4 days of incubation (virus control b+)) of the same compound?
Answer: Nil

Question: And the “Extent … of Cytomegalo-Virus” value (cytomegalo-virus (CMV); 200 µg/mℓ, viral dose 1/50, 4 days of incubation (virus control a))?
Answer: Nil

Question: And the “Extent … of Cytomegalo-Virus” value (cytomegalo-virus (CMV); 200 µg/mℓ, viral dose Full, 4 days of incubation (virus control c))?
Answer: Nil
